Bridges are numbered along the chain shown (N, C = ends). Where no end group is shown, it is not given here.
How the values were obtained:
[1] = system: mouse NIH/3T3 dermal fibroblast cells, α-SMA mRNA; experiment: α-SMA mRNA expression (qRT-PCR) in TGF-β1-treated NIH/3T3; type: cell-based
Method: (§1) HFL1 cells were cultured in Kaighn’s modified Ham’s F-12 (F-12K) medium (Sigma-Aldrich) containing NaHCO3 and HEPES buffered to pH 7. Cells were grown to confluence in T75 culture flasks in the presence of 10% fetal bovine serum (FBS; Gibco, Thermo Fisher Scientific, Waltham, MA, USA). HFL1 cells were subcultured using 0.05% trypsin at a ratio of 1:3. NIH/3T3 cells were cultured in Dulbecco’s Modified Eagle Medium (DMEM; HyClone, Thermo Fisher Scientific) containing 100 U/mL penicillin and 100 μg/mL streptomycin. Cells were grown to confluence in T75 culture flasks in the presence of 10% FBS. NIH/3T3 cells were subcultured using 0.05% trypsin/EDTA at a ratio of 1:3. All cells were maintained at 37 °C and 5% CO2, and growth medium was replenished every 3 days until experimentation. Cells were growth-arrested in serum-free medium for 48 h before experiments, and all experiments were performed under serum-free conditions using cells between passages 3 and 8.
(§2) Reverse transcription (RT) and real-time quantitative PCR (qRT-PCR) were used to assess ACTA2/Acta2, Col1a1, Col3a1, Fn1, Eda-Fn1, Mmp9, Tgfb1, Ltbp1, Hic5, and Mrtfa mRNA expressions. Custom PCR primers were designed in-house (Table 2) and then synthesized by BGI (Beijing, China). Cells were grown in 6-well culture plates and washed with phosphate buffered saline (PBS) before lysis with TRIzon Reagent (CWBio, Beijing, China) and total RNA purification according to the manufacturer’s protocol. Reverse transcription was carried using the TransScript First-Strand cDNA Synthesis SuperMix kit according to the manufacturer’s protocol (TransGen, Beijing, China), using the random primer method for the initiation of cDNA synthesis. Nuclease-free H2O replaced the RNA sample to serve as a negative control for the reverse transcription reaction. For qRT-PCR, 10 µL 2× TransStart Top Green qPCR SuperMix was added to each well of a 96-well PCR plate containing 0.4 µL forward primer, 0.4 µL reverse primer, […], and nuclease-free water to a total volume of 20 µL. […]

[2] = system: osteopontin (OPN); experiment: Western blot total protein OPN; type: cell-based; settings: 48 h, TGF-β1+AF38Pep
[3] = system: EDA-FN–ITGA4 interaction; experiment: Co-IP of EDA-FN with ITGA4; type: cell-based; settings: 48 h, Co-IP with anti-ITGA4
Method: Total protein was extracted from cells in RIPA lysis buffer containing 1% protease inhibitor cocktail, 1% phenylmethylsulfonyl fluoride, and 1% sodium orthovanadate (Santa Cruz Biotechnology, Santa Cruz, CA, USA). Protein was quantified by Micro BCA Protein Assay Kit (Thermo Fisher Scientific) before 7.5% SDS-PAGE and transfer to nitrocellulose. Membranes were blocked with 5% bovine serum albumin (BSA; Sigma-Aldrich)/0.5% Tween-20 (Sigma-Aldrich)/PBS for 1 h, RT, followed by incubation with primary antibodies diluted in 1% BSA/0.1% Tween-20/PBS, overnight at 4 °C. Primary antibodies were: anti-phosphoY204/Y187 ERK1/2 (1:1000); anti-ERK1/2 (1:1000); anti-phosphoY861 FAK (1:1000); anti-FAK (1:2000). Immunoblotting for anti-GAPDH (1:2500) was used as a protein loading control. Following wash steps, membranes were incubated in goat anti-rabbit IgG H&L secondary antibody (horseradish peroxidase, HRP conjugate, […]) (Abcam; 1:5000 dilution, 1% BSA/0.1% Tween-20/PBS). Detection was performed using Immobilon reagent (Merck Millipore, Burlington, MA, USA) and imaged using a Tanon 5500 Chemiluminescent Imaging System (Tanon, Shanghai, China).
A volume of 25 µg total protein from cell lysate in nondenaturing lysis buffer containing protease inhibitors was immunoprecipitated (IP) using anti-ITGA4 antibodies linked to protein A/G sepharose beads (Abcam). […]

[4] = system: integrin α4 protein (ITGA4); experiment: Western blot total protein ITGA4; type: cell-based; settings: 48 h TGF-β1, AF38Pep or TGF-β1+AF38Pep
[5] = system: human HFL1 lung fibroblast cells; experiment: Cytotoxicity/proliferation assay (CCK-8) HFL1; type: cell-based; settings: TGF-β1 stimulated HFL1, over 72 h
Method: as §1
Cells were seeded into 12-well culture plates at a density of 2.5 × 10^4 and when cultures reached 50% confluence, the culture medium was replaced with fresh serum-free F12K or serum-free DMEM/F12 for 48 h (growth arrest). […] Absorbance was measured at 450 nm wavelength using a Bio-Rad optical plate reader.

[6] = system: Hic5 mRNA in NIH/3T3 fibroblasts; experiment: qRT-PCR Hic5 mRNA; type: cell-based, mouse; settings: 48 h, TGF-β1 10 ng/mL
Method: as §2, with “µL. The qRT-PCR reaction was completed using a CFX96 Real-Time PCR Detection System (Bio-Rad Laboratories, Hercules, CA, USA). Amplification used the following parameters: 94 °C for 30 s, followed by 40 cycles of 94 °C for 5 s, 55 °C for 15 s, 72 °C for 10 s, and then a dissociation stage (melt-curve).” for “µL.”

[7] = system: Col1a1 mRNA; experiment: qRT-PCR Col1a1 mRNA; type: cell-based, mouse
Method: as §2, with “µL. The qRT-PCR reaction was completed using a CFX96 Real-Time PCR Detection System (Bio-Rad Laboratories, Hercules, CA, USA). Amplification used the following parameters: 94 °C for 30 s, followed by 40 cycles of 94 °C for 5 s, 55 °C for 15 s, 72 °C for 10 s, and then a dissociation stage (melt-curve).” for “µL.”

[8] = system: vascular cell adhesion protein-1 (VCAM1); experiment: Western blot total protein VCAM1; type: cell-based; settings: 48 h TGF-β1, AF38Pep or TGF-β1+AF38Pep

VMPYISTTPAKPCTSENCGNSWYGGFKSKNENKIYFIN (disulfide 13-18 (inferred)) [AF38Pep]
attenuation of TGF-β1-induced α-SMA mRNA ([1]; NIH/3T3, 48 h, all concentrations tested (log10 dilution range)): significantly attenuated gene induction at 48 h in all concentrations tested | attenuation of TGF-β1-induced α-SMA mRNA ([1]; NIH/3T3, 72 h, 10 µg/mL): only AF38Pep treatment at a concentration of 10 µg/mL was sufficient to significantly attenuate the α-SMA mRNA upregulation | attenuation of TGF-β1-induced α-SMA mRNA ([1]; NIH/3T3, 72 h, 0.1–1 µg/mL): not able to effectively inhibit the differentiation response over the 72 h duration of treatment | OPN protein expression [2]: significantly attenuated | EDA-FN–ITGA4 interaction [3]: specifically inhibited EDA-FN–ITGA4 interactions | ITGA4 total protein [4]: remained unaffected | cytotoxicity/proliferation [5]: not detrimental to cell numbers | HIC5 mRNA expression [6]: attenuated | collagen type I mRNA expression ([7]; 72 h, TGF-β1 + AF38Pep): all inhibited | collagen type I mRNA expression ([7]; by 48 h, vs TGF-β1-only): significant attenuation | VCAM1 total protein [8]: remained unaffected

Reference: paper PMC7913925, “Design and Evaluation of a Polypeptide That Mimics the Integrin Binding Site for EDA Fibronectin to Block Profibrotic Cell Activity” (International Journal of Molecular Sciences, 2021)
